# According to PubChem BioAssay (NCI):
#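 Protocol summary: plate cells (96-well), add compound at 5 concentrations, incubate 48 h, interpolate endpoints linearly. The concentration for 50% growth inhibition is given as GI50. Definition used: TGI = concentration required for complete inhibition of growth.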
# Test system: SK-OV-3 ovarian
# Assay: inhibition of tumour cell growth, NCI panel, 48 h
Structure (SMILES),TGI [µM],GI50 [µM]
O=C1[C@@H]2C(c3ccccc3F)=NO[C@@H]2C(=O)N1c1ccc(Cc2ccc(N3C(=O)[C@H]4C(c5ccccc5F)=NO[C@H]4C3=O)cc2)cc1,> 100,–
C=CCc1ccc(Oc2cc(CC=C)c3c(c2O)O[C@@H](CO)[C@H]3c2ccc(O)c(-c3cc(CC=C)ccc3O)c2)cc1,> 100,–
Cn1c2ccccc2c(=O)c2ccc(Cl)cc21,> 10,–
CC(CO)(CO)NCCCCn1ccc2c1C(=O)c1c(c(O)c3ccccc3c1O)C2=O,98.7,27.4
O=C(NCO)NCOCn1c(=O)n(CO)c(=O)n(CO)c1=O,> 100,–
Clc1ccc2c(c1)-c1c3c(nn1-c1ccccc1)-c1ccccc1SC3O2 (stereo not given),> 100,–
O=C(O)C1C(Br)(c2ccccc2)C1(Br)c1ccccc1 (stereo not given),81,–
COc1ccc(CCN2COc3c([C@@H](C)CCC=C(C)C)ccc(C)c3C2)cc1OC,31.1,11.8
O=C1OC2CCCC[C@@H]2C2C[C@]34CCCCC3[C@@H](C(=O)O4)C12 (stereo not given in full),> 100,–
CN(C)c1cc[c]([Sn]([c]2ccc(N(C)C)cc2)([c]2ccc(N(C)C)cc2)[c]2ccc(N(C)C)cc2)cc1,49.5,28
COc1cc(/C=C/c2cc(/C=C/c3ccc(O)c(OC)c3)n(C(=O)Nc3ccc(C)cc3C)n2)ccc1O,1.21,0.347
CCCSc1nc(COC(=O)NC)c(COC(=O)NC)n1C,> 100,–
O=C1CCC(O)=C1N=Nc1ccccc1,> 100,–
CCN(CC)c1ccc(N=Nc2ccc(-c3nc4ccc[n+](C)c4s3)cc2)cc1,38.1,–
NC(=O)NCc1c(C(N)=O)ncn1Cc1ccccc1,> 100,–
O=C1CSC(/C(=N/Nc2ccccc2)c2nc3ccccc3[nH]2)=N1,73.5,–
C1CCC([PH+](C2CCCCC2)C2CCCCC2[PH+](C2CCCCC2)C2CCCCC2)CC1.O=C(C1[CH-]CCCC1)C1CCCC[N-]1.[Au] (stereo not given),1.4,0.33
CN(C)CCN1C(=O)c2ccc3c4c(ccc(c24)C1=O)C(=O)N(CCN=C=S)C3=O,0.668,0.164
O=C(c1ccccc1)C1OC12C(=O)Nc1ccccc12 (stereo not given),> 100,–
COc1ccc2nc(NC(=O)C(=O)C(C#N)c3ccc([N+](=O)[O-])cc3)sc2c1 (stereo not given),> 100,–

Structure (SMILES),TGI [µM],GI50 [µM]
O=C(O)[C@H](NS(=O)(=O)c1ccc([N+](=O)[O-])cc1)c1ccccc1,> 100,–
CC(C)C[C@H](NC(=O)/C=C/Cn1ccc2ccccc2c1=O)B(O)O,92.2,10.5
S=C1OC2CCCC[C@H]2O1 (stereo not given in full),> 100,–
O=C1/C(=C/c2cccc([N+](=O)[O-])c2)COc2ccc(Br)cc21,> 100,–
COc1c(CCl)cc(-c2cc(=O)c3ccccc3s2)cc1CCl,> 60.2,–
CSC(C1c2ccccc2N(c2ccc(C)cc2)c2[nH]c(=O)n(C)c(=O)c21)S(=O)(=O)c1ccc(C)cc1 (stereo not given),> 100,–
CCOC(=O)NC(=O)c1cn(CCCOC(=O)CCCCCCCCCCC(=O)OCCCn2cc(C(=O)NC(=O)OCC)c(=O)[nH]c2=O)c(=O)[nH]c1=O,> 100,–
COc1cc(/C=C(\C#N)c2ccccc2)cc(OC)c1,> 100,–
N#Cc1cccnc1Cl,> 100,–
O=C1CC2c3ccccc3CCC2c2ccccc21 (stereo not given),> 100,–
C=CC/C=C/C/C=C/CCCCCCCc1cccc(O)c1C(=O)O,79.8,–
COc1ccc(OC)c2c(C(=O)O)c(Cc3ccccc3)ccc12,> 100,–
O=C(Nc1c(Cl)cc([N+](=O)[O-])cc1Cl)C(=O)C(C1OC(=O)c2ccccc21)[N+](=O)[O-] (stereo not given),> 100,–
Cc1c(C(=O)/C=C/c2ccccc2)[n+](=O)c2ccccc2n1[O-],42.7,–
CN(CCC#N)c1ccc(/C=C(\C#N)c2ccc(Br)cc2)cc1,> 100,> 100
COc1cc(NC(C)CCCN)c2nccc(C)c2c1 (stereo not given),58.5,–
C1C[OH+]CC[OH+]CC[OH+]CC[OH+]CC[OH+]1.[Cl-].[V],> 100,67.8
CCCCCCCCCCCCCCCCCCOc1ccccc1CC(=O)OCC[N+]1(C)CCCC1,38.8,18.9
CC(=O)C(=CN1CCN(C(=O)c2ccco2)C1=S)C(C)=O,43.9,20
